# pIC50: −log10 of the molar value. Like-named read-outs stand apart in the source and are kept apart here.
# Assays:
# [1] = Compound stability in human liver microsomes; assay type: in vitro ADME; details: for half-life at 5 μM / CLint scaled at 5 μM: pH 7.4; for CLint scaled at 5 μM: human liver microsomes, in vivo CLint extrapolated
# Procedure: (§1) Human or rat liver microsomes incubations were conducted in duplicate in polypropylene tubes. The typical incubation mixtures consisted of human or rat liver microsomes (0.5 mg protein/mL), compounds of interest (5 μM) and NADPH (1.0 mM) in a total volume of 200 μL potassium phosphate buffer (PBS, 100 mM, pH=7.4). Compounds were dissolved in DMSO and diluted with PBS such that the final concentration of DMSO was 0.05%. The enzymatic reactions were commenced with the addition of protein after a 3-min preincubation and incubated in a water bath open to the air at 37° C. Reactions were terminated at various time points (0, 5, 10, 15, 30, 60 min) by adding equal volume of ice-cold acetonitrile. The samples were stored at −80° C. until LC/MS/MS assays.
# (§2) The concentrations of compounds in the incubation mixtures of human or rat liver microsomes were determined by a LC/MS/MS method. The ranges of the linearity in the concentration range were determined for each tested compounds.
# (§3) A parallel incubation was performed using denatured microsomes as the negative control, and reactions were terminated at various time points (0, 15, 60 min) after incubation at 37° C.
# (§4) Dextromethorphan (70 μM) was selected as the positive control, and reactions were terminated at various time points (0, 5, 10, 15, 30, 60 min) after incubation at 37° C. Both positive and negative control samples were included in each assay to ensure the integrity of the microsomal incubation system.
# (§5) The concentrations of compounds in human or rat liver microsome incubations were plotted as a percentage of the relevant zero time point control for each reaction. The in vivo CLint were extrapolated (ref.: Naritomi Y, Terashita S, Kimura S, Suzuki A, Kagayama A, Sugiyama Y. “Prediction of human hepatic clearance from in vivo animal experiments and in vitro metabolic studies with liver microsomes from animals and humans”, Drug Metabolism and Disposition, 2001, 29, 1316-1324).
# [2] = Pharmacokinetic profiles in rats; assay type: in vivo; details: for F: oral dose generally 5 or 10 mg/kg; for Cl/F / AUC(0-t) / half-life / Vd: iv dosing; for AUC(0-t) / half-life / Vd: rat, plasma; for Vd: read-out: Vss
# Procedure: The compounds disclosed herein are assessed in pharmacokinetic studies in mice, rats, dogs or monkeys. The compounds are administered as a water solution, 2% HPMC+1% TWEEN®80 in water solution, 5% DMSO+5% solutol in saline, 4% MC suspension or capsule. For the intravenous administration, the animals are generally given at 1 or 2 mg/kg dose. For the oral (p.o.) dosing, mice and rats are generally given 5 or 10 mg/kg dose, and dogs and monkeys are generally given 10 mg/kg dose. The blood samples (0.3 mL) are drawn at 0.25, 0.5, 1.0, 2.0, 3.0, 4.0, 6.0, 8.0, 12 and 24 h time points or 0.083, 0.25, 0.5, 1.0, 2.0, 4.0, 6.0, 8.0 and 24 h time points and centrifuged at 3,000 or 4000 rpm for 2 to 10 min. The plasma solutions are collected and stored at −20° C. or −70° C. until analyzed by LC/MS/MS as described above.
# [3] = molecular target: T1, mTOR (h) (Homo sapiens, UniProt P42345); test: mTOR (h) kinase assay; assay type: biochemical
# T1 construct: purchased Millipore UK Ltd (assays run there as a service)
# Procedure: mTOR (h) is incubated with 50 mM HEPES pH 7.5, 1 mM EDTA, 0.01% TWEEN®20, 2 mg/mL substrate, 3 mM Manganese Chloride and [γ-^33P-ATP] (specific activity approx. 500 cpm/pmol, concentration as required). The reaction is initiated by the addition of the MnATP mix. After incubation for 40 minutes at room temperature, the reaction is stopped by the addition of 3% phosphoric acid solution. Aliquote of the reaction (10 μL) is then spotted onto a P30 filtermat and washed three times for 5 minutes in 75 mM phosphoric acid and once in methanol prior to drying and scintillation counting.
# (§6) The kinase assays described herein were performed at Millipore UK Ltd, Dundee Technology Park, Dundee DD2 1SW, UK.
# [4] = molecular target: T2, PI3K p110α/p85α (h) (Homo sapiens, UniProt P42336); test: PI3K p110α/p85α (h) non-radioactive (HTRF) assay; assay type: biochemical
# T2 construct: purchased Millipore UK Ltd (assays run there as a service)
# T2 sequence (P42336 whole entry): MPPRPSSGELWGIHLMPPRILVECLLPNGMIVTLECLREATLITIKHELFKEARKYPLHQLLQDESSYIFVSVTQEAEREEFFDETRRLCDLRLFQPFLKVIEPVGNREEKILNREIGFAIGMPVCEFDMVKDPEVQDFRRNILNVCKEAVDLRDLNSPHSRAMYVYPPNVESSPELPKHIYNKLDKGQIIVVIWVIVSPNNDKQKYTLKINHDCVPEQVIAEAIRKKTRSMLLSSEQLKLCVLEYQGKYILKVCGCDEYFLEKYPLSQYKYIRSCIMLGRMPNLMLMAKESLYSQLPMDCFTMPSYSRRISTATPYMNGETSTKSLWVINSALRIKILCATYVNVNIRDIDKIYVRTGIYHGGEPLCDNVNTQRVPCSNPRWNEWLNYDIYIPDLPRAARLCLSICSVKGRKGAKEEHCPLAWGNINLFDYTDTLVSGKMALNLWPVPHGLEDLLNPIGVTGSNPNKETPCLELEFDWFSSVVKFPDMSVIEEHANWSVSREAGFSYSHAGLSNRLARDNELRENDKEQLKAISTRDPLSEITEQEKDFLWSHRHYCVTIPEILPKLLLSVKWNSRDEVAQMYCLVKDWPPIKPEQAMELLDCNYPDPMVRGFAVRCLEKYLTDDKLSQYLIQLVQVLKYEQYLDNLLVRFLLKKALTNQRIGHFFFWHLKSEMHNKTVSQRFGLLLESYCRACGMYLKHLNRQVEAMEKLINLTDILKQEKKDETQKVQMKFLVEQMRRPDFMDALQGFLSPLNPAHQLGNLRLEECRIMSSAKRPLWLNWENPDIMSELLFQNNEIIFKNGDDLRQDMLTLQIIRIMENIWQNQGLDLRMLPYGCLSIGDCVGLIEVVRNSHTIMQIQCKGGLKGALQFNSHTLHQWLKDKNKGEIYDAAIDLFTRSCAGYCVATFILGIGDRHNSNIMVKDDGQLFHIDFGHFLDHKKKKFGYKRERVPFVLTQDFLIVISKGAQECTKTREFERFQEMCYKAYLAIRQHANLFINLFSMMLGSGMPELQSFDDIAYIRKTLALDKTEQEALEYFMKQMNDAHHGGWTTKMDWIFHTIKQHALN
# T2 sequence (P27986 whole entry partner): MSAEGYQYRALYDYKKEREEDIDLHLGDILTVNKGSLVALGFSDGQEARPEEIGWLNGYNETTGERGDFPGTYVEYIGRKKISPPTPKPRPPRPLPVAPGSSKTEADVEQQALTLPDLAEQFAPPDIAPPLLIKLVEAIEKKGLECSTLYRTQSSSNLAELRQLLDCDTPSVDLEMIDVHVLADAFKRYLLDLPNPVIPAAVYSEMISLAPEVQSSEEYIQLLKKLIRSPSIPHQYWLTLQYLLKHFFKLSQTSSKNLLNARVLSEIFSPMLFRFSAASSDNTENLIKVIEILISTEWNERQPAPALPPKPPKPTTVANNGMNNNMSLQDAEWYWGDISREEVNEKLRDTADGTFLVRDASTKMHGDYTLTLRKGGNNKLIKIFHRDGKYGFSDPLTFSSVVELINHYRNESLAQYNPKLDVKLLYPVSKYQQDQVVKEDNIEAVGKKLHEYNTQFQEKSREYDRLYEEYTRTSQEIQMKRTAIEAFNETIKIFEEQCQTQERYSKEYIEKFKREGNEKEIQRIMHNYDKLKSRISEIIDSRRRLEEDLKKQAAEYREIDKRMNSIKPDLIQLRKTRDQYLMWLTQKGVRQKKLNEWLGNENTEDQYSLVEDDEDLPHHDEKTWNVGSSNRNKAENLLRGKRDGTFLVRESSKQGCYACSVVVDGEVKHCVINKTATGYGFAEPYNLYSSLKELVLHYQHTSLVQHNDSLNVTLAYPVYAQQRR
# Procedure: PI3K p110α/p85α (h) [Non-Radioactive Assay]
# (§7) PI3K p110α/p85α (h) is incubated in assay buffer containing 10 μM phosphatidylinositol 4,5-bisphosphate and MgATP (concentration as required). The reaction is initiated by the addition of the ATP solution. After incubation for 30 minutes at room temperature, the reaction is stopped by the addition of stop solution containing EDTA and biotinylated phosphatidylinositol-3,4,5-trisphosphate. Finally, detection buffer is added, which contains europium-labelled anti-GST monoclonal antibody, GST-tagged GRP1 PH domain and streptavidin allophycocyanin. The plate is then read in time-resolved fluorescence mode and the homogenous time-resolved fluorescence (HTRF) signal is determined according to the formula HTRF=10000×(Em665 nm/Em620 nm).
# as §6
# [5] = molecular target: T3, PI3K p110β/p85α (h) (Homo sapiens, UniProt P42338); test: PI3K p110β/p85α (h) non-radioactive (HTRF) assay; assay type: biochemical
# T3 construct: purchased Millipore UK Ltd (assays run there as a service)
# T3 sequence (P42338 whole entry): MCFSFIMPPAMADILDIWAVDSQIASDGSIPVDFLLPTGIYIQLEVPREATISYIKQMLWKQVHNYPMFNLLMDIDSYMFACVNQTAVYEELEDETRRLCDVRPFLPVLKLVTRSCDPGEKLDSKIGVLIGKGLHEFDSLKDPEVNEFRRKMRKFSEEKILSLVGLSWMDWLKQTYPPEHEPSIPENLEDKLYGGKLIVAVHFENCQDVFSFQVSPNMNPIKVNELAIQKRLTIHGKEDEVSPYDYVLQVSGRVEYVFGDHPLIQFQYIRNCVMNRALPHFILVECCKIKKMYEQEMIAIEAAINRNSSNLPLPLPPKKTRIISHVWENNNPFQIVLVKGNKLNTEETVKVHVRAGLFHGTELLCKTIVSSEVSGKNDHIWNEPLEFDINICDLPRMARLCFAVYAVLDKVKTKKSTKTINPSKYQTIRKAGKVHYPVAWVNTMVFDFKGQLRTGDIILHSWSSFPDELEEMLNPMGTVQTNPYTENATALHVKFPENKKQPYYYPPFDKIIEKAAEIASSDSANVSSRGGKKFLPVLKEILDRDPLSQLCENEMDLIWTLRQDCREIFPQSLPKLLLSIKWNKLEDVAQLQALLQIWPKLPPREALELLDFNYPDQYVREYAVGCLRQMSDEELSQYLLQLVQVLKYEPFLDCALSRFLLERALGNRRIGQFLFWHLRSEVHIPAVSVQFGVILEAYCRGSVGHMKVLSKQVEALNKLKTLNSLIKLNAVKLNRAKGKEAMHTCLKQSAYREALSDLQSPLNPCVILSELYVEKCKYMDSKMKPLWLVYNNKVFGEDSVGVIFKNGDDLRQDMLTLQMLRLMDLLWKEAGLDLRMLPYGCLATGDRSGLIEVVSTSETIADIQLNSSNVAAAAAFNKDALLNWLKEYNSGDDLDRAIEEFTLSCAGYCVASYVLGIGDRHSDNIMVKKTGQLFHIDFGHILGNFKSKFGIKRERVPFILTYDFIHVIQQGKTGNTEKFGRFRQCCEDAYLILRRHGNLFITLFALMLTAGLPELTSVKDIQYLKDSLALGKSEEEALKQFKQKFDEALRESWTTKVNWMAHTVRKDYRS
# T3 sequence (P27986 whole entry partner): as the sequence (P27986 whole entry partner) above
# Procedure: PI3K p110β/p85α (h) [Non-Radioactive Assay]
# as §7, with “(p110β/p85α)” for “p110α/p85α”, “phosphatidylinositol-4,5-bisphosphate” for “phosphatidylinositol 4,5-bisphosphate”, “MgATP mix.” for “ATP solution.”, “streptavidin-allophycocyanin.” for “streptavidin allophycocyanin.”
# as §6
# [6] = molecular target: T4, PI3K (p110δ/p85α) (h) (Homo sapiens, UniProt O00329); test: PI3K (p110δ/p85α) (h) non-radioactive (HTRF) assay; assay type: biochemical
# T4 construct: purchased Millipore UK Ltd (assays run there as a service)
# T4 sequence (O00329 whole entry): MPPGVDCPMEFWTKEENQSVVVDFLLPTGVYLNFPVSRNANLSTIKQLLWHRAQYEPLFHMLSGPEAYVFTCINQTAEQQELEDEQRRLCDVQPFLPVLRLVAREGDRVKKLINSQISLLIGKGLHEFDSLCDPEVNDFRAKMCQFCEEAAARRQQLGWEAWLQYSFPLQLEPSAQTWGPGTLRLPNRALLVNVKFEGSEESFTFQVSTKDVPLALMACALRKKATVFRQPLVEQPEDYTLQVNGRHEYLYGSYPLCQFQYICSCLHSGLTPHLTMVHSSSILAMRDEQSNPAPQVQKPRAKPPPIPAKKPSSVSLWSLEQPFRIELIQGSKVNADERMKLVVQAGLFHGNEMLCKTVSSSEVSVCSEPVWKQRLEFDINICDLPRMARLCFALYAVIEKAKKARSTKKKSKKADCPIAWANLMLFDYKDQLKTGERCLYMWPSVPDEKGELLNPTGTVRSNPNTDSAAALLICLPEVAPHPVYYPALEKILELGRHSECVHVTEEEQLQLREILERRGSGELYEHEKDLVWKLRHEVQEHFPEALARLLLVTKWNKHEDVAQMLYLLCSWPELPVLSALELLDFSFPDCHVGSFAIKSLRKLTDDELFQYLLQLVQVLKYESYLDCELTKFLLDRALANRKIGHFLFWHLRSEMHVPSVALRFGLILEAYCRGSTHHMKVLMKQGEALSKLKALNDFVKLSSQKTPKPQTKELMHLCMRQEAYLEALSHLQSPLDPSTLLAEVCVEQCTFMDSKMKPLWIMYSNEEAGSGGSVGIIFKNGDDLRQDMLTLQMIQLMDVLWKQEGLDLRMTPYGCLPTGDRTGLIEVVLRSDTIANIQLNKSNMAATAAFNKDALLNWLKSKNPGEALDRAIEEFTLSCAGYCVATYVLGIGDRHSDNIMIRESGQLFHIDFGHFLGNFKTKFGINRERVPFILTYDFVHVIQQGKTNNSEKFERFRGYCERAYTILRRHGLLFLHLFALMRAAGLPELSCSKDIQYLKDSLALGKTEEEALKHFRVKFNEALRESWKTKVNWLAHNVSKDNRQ
# T4 sequence (P27986 whole entry partner): as the sequence (P27986 whole entry partner) above
# Procedure: PI3K (p110δ/p85α) (h) [Non-Radioactive Assay]
# as §7, with “(p110δ/p85α)” for “p110α/p85α”, “phosphatidylinositol-4,5-bisphosphate” for “phosphatidylinositol 4,5-bisphosphate”, “MgATP mix.” for “ATP solution.”, “streptavidin-allophycocyanin.” for “streptavidin allophycocyanin.”
# as §6
# [7] = molecular target: T5, PI3K (p120γ) (h) (Homo sapiens, UniProt P48736); test: PI3K (p120γ) (h) non-radioactive (HTRF) assay; assay type: biochemical
# T5 construct: purchased Millipore UK Ltd (assays run there as a service)
# T5 sequence (P48736 whole entry): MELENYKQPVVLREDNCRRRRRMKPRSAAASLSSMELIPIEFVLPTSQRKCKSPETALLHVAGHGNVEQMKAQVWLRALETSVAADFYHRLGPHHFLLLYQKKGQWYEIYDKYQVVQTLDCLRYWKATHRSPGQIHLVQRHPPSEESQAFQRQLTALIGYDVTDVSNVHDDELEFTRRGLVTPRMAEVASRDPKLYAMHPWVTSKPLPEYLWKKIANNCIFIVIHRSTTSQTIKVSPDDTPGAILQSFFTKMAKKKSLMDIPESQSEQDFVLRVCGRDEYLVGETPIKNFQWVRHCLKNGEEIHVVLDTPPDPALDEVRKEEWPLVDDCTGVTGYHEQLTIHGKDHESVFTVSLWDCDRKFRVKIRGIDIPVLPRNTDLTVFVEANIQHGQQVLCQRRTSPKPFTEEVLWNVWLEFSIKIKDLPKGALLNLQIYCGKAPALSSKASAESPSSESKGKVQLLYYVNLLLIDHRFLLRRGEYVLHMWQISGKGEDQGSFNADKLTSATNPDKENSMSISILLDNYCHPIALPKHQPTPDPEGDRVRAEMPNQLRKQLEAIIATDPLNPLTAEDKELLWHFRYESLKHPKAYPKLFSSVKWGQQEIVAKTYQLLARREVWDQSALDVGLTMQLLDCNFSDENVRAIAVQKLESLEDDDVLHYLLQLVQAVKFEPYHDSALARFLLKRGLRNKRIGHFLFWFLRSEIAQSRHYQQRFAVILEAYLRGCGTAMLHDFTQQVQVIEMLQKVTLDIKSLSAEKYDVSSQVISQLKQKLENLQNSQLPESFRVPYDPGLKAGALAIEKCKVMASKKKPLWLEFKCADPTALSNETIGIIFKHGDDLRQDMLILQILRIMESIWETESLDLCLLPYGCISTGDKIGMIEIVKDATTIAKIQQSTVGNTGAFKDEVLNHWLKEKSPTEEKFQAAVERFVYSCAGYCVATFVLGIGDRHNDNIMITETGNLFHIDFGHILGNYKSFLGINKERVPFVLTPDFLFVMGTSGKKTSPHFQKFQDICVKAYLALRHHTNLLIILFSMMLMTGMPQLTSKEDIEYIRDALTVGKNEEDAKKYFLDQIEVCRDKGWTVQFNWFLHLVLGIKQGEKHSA
# Procedure: PI3K (p120γ) (h) [Non-Radioactive Assay]
# as §7, with “(p120γ)” for “p110α/p85α”, “phosphatidylinositol-4,5-bisphosphate” for “phosphatidylinositol 4,5-bisphosphate”, “MgATP mix.” for “ATP solution.”, “streptavidin-allophycocyanin.” for “streptavidin allophycocyanin.”
# as §6
# [8] = Compound stability in rat liver microsomes; assay type: in vitro ADME; details: for half-life at 5 μM / CLint scaled at 5 μM: pH 7.4; for half-life at 5 μM / T1/2: rat liver microsomes 0.5 mg protein/mL, compound 5 μM, NADPH, 37° C.; for CLint scaled at 5 μM: rat liver microsomes, in vivo CLint extrapolated
# Procedure: as §1, §2, §3, §4, §5
# [9] = human liver microsomes 0.5 mg protein/mL, compound 5 μM, NADPH, 37° C.
SMILES,"half-life at 5 μM [1, 9] [h]",CLint scaled at 5 μM [1] [mL/min/kg],half-life at 5 μM [8] [h],CLint scaled at 5 μM [8] [mL/min/kg],F ([2]; iv dose 1 mg/kg) [%],Cl/F ([2]; 1 mg/kg) [mL/min/kg],AUC(0-t) ([2]; 1 mg/kg) [ng·h/mL],half-life ([2]; 1 mg/kg) [h],Vd ([2]; 1 mg/kg) [L/kg],T1/2 [8],other results
"COc1ncc(-c2ccn3ncc(C#CC(C)(C)O)c3n2)cc1NS(=O)(=O)c1ccc(F)cc1F [Ex. 6, 2,4-difluoro-N-(5-(3-(3-hydroxy-3-methylbut-1-yn-1-yl)pyrazolo[1,5-a]pyrimidin-5-yl)-2-methoxypyridin-3-yl)benzenesulfonamide]",–,–,–,–,50.80,0.33,40900,11,0.24,∞,"T1/2 [1, 9]: ∞"
"COc1ncc(-c2ccn3ncc(C#CC(C)(C)O)c3c2)cc1NS(=O)(=O)c1ccc(F)cc1F [Ex. 8, 2,4-difluoro-N-(5-(3-(3-hydroxy-3-methylbut-1-yn-1-yl)pyrazolo[1,5-a]pyridin-5-yl)-2-methoxypyridin-3-yl)benzenesulfonamide]",130,0.22,21,1.97,103.40,0.33,41800,10.8,0.28,–,–
"COc1ncc(-c2ccn3ncc(C#N)c3c2)cc1NS(=O)(=O)CC(F)(F)F [Ex. 10, N-(5-(3-cyanopyrazolo[1,5-a]pyridin-5-yl)-2-methoxypyridin-3-yl)-2,2,2-trifluoroethanesulfonamide]",20.4,2.03,–,–,112.95,12.7,1240,2.74,1.72,∞,–

# Second part, led by results:
"half-life at 5 μM [1, 9] [h]",CLint scaled at 5 μM [1] [mL/min/kg],half-life at 5 μM [8] [h],CLint scaled at 5 μM [8] [mL/min/kg],F ([2]; iv dose 1 mg/kg) [%],Cl/F ([2]; 1 mg/kg) [mL/min/kg],AUC(0-t) ([2]; 1 mg/kg) [ng·h/mL],half-life ([2]; 1 mg/kg) [h],Vd ([2]; 1 mg/kg) [L/kg],T1/2 [8],SMILES,other results
5.05,5.74,3.61,11.5,–,–,–,–,–,–,"COc1ncc(-c2ccn3ncc(C#CC(C)O)c3n2)cc1NS(=O)(=O)c1ccc(F)cc1F (centres unmarked) [Ex. 5, 2,4-difluoro-N-(5-(3-(3-hydroxybut-1-yn-1-yl)pyrazolo[1,5-a]pyrimidin-5-yl)-2-methoxypyridin-3-yl)benzenesulfonamide]",F ([2]; iv dose 2 mg/kg): 96.20%; Cl/F ([2]; 2 mg/kg): 0.83 mL/min/kg; AUC(0-t) ([2]; 2 mg/kg): 35200 ng·h/mL; half-life ([2]; 2 mg/kg): 3 h; Vd ([2]; 2 mg/kg): 0.2 L/kg; pIC50 [3]: 8.15; pIC50 [4]: 8.52; pIC50 [5]: 7.12; pIC50 [6]: 9.00; pIC50 [7]: 8.22
55.7,0.52,1.54,26.9,80.10,3.17,5330,3.94,0.63,–,"CC#Cc1cnn2ccc(-c3cnc(OC)c(NS(=O)(=O)c4ccc(F)cc4F)c3)nc12 [Ex. 7, 2,4-difluoro-N-(2-methoxy-5-(3-(prop-1-yn-1-yl)pyrazolo[1,5-a]pyrimidin-5-yl)pyridin-3-yl)benzenesulfonamide]",–

# From patent US9573953B2, “Heteroaromatic compounds as PI3 kinase modulators and methods of use” (CALITOR SCIENCES, LLC, priority 2013, dated 2017)
